Where two headings read alike, the source gives them in different places.
Columns and labels:
[1] = test system: lysosomal and proteolytic enzymes; assay: Osteoporosis fibroblasts lysosomal and proteolytic enzymes (statement); format: cell-based, human
Prostaglandin synthetase = target: T1, Prostaglandin synthetase (Bos taurus, UniProt O62664); assay: Prostaglandin synthetase (cyclooxygenase), purified beef seminal vesicle; format: biochemical; details: Table IX; commercial enzyme preparation; read-out: Beef Prostaglandin Cyclooxygenase IC50
T1 construct: Prostaglandin synthetase purified beef seminal vesicle; from tissue
T1 sequence (O62664 25-600): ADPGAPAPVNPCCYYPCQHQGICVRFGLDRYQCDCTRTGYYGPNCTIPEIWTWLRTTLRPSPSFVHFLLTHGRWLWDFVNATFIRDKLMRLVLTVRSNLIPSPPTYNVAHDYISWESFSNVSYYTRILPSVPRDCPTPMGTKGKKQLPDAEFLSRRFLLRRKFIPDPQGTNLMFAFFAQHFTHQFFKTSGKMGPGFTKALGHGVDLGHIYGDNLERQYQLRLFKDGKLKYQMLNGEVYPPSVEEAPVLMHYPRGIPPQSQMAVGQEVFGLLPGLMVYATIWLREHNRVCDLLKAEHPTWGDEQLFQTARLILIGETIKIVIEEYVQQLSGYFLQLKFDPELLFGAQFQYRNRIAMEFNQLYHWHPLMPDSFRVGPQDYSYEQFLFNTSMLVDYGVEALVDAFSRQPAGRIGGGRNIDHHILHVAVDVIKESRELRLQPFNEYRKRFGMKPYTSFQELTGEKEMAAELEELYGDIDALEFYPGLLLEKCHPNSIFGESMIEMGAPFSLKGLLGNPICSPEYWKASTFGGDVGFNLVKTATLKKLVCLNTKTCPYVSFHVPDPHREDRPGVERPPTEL
From the text: (§1) Prostaglandin synthetase purified beef seminal vesicle ^3 H arachidonic acid (86.2 Ci/mmol), tlc separation.

[2] = target: T2, Porcine Pancreatic Elastase (Sus scrofa, UniProt P00772); assay: Porcine pancreatic elastase activity in vitro; format: biochemical; details: Table IX; commercial enzyme preparation
T2 construct: purchased; host or cells: porcine pancreas
T2 sequence (P00772 27-266): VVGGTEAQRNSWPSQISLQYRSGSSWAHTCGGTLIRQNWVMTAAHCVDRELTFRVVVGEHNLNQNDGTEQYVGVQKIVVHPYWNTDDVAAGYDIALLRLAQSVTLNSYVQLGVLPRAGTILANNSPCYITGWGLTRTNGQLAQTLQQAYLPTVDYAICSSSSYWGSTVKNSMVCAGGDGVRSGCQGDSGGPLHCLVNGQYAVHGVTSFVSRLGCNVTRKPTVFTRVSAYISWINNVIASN
From the text: (§2) 2. Elastase- N-succinyl-L-alanyl-L-alanine-p-nitroanilide, pH 8.0, p-nitro anilide 410 nm.

Trypsin [3] = assay: Mouse hepatic trypsin activity; format: biochemical; details: Table VI; mouse hepatic, 60 min incubation; read-out: Trypsin IC50
From the text: (§3) 1. Cf1 male mouse hepatic 10% homogenates in 0.25M sucrose+0.001MEDTA,pH 7.2.
(§4) 1. Trypsin- N-benzoyl-L-arginine ethyl ester pH 8.0, hydrolytic product 253 nm.

Hydroxyproline = assay: Serum and urine hydroxyproline levels in vivo; details: Cf1 male mice, 8 mg/kg/day I.P. 14 days, N=6
Aryl sulphatase [4] = assay: Mouse macrophage aryl sulphatase activity; format: cell-based; details: Table VII; mouse macrophage cultured cells, 60 min incubation; read-out: Aryl Sulphatase IC50
Elastase [5] = assay: Human osteoporosis fibroblasts elastase activity; format: cell-based
From the text: as §2

Pg-E2 synthesis [6] = assay: 3H-Arachidonic acid conversion to Pg-E2, CF1 hepatic liver; format: biochemical, mouse
[7] = target: Clostridium histolyticum Collagenase Type I; assay: Commercial collagenase type I; format: biochemical; details: Table IX; commercial enzyme preparation
From the text: 3. Collagenase I, Clostridium histolyticum, bone, skin, tendon, blood vessel, dentine, GI. substrate: rat collagen, N-[propionate-2-3-^3 H] propionylated measured as dpm released.

Pg-E2 synthesis [8] = assay: 3H-Arachidonic acid conversion to Pg-E2, macrophage; format: cell-based, mouse
Calcium = assay: Serum and urine calcium levels in vivo; details: Cf1 male mice, 8 mg/kg/day I.P. 14 days, N=6
Trypsin [9] = assay: Human osteoporosis fibroblasts trypsin (BAEE) activity; format: cell-based
From the text: as §4

Aryl sulphatase [10] = assay: Human osteoporosis fibroblasts aryl sulphatase activity; format: cell-based
From the text: 3. Aryl sulphatase- p-nitrocatechol sulfate, pH
5. 8 p-nitro-catechol product 510 nm.

[11] = test system: Prostaglandin cyclooxygenase; assay: Mouse macrophage prostaglandin cyclooxygenase activity; format: cell-based; details: Table VIII; mouse macrophages, 60 min incubation; read-out: Prostaglandin Cyclooxygenase IC50
From the text: 3. Mouse macrophages J774A.1 BALB/c
as §1

Cathepsin D [12] = target: T3, Cathepsin D (Mus musculus, UniProt P18242); assay: Mouse hepatic lysosomal cathepsin D activity; format: biochemical; details: Table V; mouse hepatic, 60 min incubation; read-out: Cathepsin D IC50
T3 construct: azocasein assay pH 5.0
T3 sequence (P18242 65-410): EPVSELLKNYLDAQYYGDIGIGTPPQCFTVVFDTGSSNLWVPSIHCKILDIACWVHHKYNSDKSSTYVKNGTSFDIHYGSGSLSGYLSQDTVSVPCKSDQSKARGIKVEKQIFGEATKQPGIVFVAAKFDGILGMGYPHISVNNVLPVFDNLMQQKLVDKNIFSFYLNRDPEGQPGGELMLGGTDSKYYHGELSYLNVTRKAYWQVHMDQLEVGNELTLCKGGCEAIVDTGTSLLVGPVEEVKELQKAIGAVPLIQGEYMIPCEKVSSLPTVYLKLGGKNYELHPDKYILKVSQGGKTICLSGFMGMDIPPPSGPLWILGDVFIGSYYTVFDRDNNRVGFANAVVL
From the text: as §3
Lysosomal Enzymes - free and total [triton X-100].
2. Acid Cathepsin D -azocasein-pH 5.0, hydrolytic azo-peptide produce 366 nm.
Cathepsin azo casein activity -

Acid phosphatase [13] = assay: Human osteoporosis fibroblasts acid phosphatase activity; format: cell-based
From the text: 1. Acid phosphatase -beta glycerol-3-phosphate, pH 5.0, released IP 720 nm.

Acid phosphatase [14] = assay: Mouse macrophage acid phosphatase activity; format: cell-based; details: Table VII; mouse macrophage cultured cells, 60 min incubation; read-out: Acid Phosphatase IC50
Elastase [15] = assay: Mouse macrophage elastase activity; format: cell-based; details: Table VIII; mouse macrophages, 60 min incubation; read-out: Elastase IC50
Trypsin [16] = assay: Mouse macrophage trypsin (BAEE) activity; format: cell-based; details: Table VIII; mouse macrophages, 60 min incubation; read-out: Trypsin BAEE IC50
Cf1 male mice = assay: Writhing reflex, 0.6% acetic acid; format: in vivo; details: Mus musculus, ip; Table IV
Cathepsin D [17] = target: T4, Cathepsin D (Homo sapiens, UniProt P07339); assay: Human osteoporosis fibroblasts cathepsin D (azo-casein) activity; format: cell-based
T4 construct: azocasein assay pH 5.0
T4 sequence (P07339 65-412): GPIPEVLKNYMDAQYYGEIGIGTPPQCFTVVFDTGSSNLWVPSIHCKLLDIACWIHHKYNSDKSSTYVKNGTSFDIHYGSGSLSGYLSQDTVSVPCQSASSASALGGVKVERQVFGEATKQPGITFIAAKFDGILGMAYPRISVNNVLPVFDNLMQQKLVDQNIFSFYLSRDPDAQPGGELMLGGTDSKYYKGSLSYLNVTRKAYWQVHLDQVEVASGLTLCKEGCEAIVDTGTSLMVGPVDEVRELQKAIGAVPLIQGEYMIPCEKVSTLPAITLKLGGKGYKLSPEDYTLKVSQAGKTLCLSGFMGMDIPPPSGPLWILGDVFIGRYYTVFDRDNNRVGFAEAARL
From the text: Osteoporosis Human Fibroblast-CRL-1140, Be SA1

CCCCCCCCCCCCCCCC[N+](C)(C)[BH2-]C(=O)O [Compound 7, N,N-Dimethylhexadecylamine-carboxyborane]
inhibition of lysosomal and proteolytic enzymes of osteoporosis fibroblasts [1]: potent inhibitors | IC50 (Prostaglandin synthetase): 2.86 µM | IC50 [2]: 49.7 µM | IC50 (Trypsin [3]): 1.16 µM | Hydroxyproline serum (Hydroxyproline): 84.1 % Control | Hydroxyproline urine (Hydroxyproline): 28.7 % Control | IC50 (Aryl sulphatase [4]): 9.71 µM | IC50 (Elastase [5]; Table VIIIA, osteoporosis fibroblasts in vitro, read-out: Elastase IC-50): 3.86 µM | IC50 (Elastase [5]; Table XI, human osteoporosis fibroblasts, 60 min incubation, read-out: Elastase IC50): 3.86 µM | hepatic Pg-E2 synthesis reduced (Pg-E2 synthesis [6]): 32% | 3H-Arachidonic acid conversion to Pg-E2 reduced (Pg-E2 synthesis [6]; CF1 hepatic liver): 43% | IC50 [7]: 615 µM | macrophage Pg-E2 synthesis reduced (Pg-E2 synthesis [8]): 20% | 3H-Arachidonic acid conversion to Pg-E2 reduced (Pg-E2 synthesis [8]; macrophage): 29% | Calcium urine (Calcium): 80.7 % Control | IC50 (Trypsin [9]; Table VIIIA, osteoporosis fibroblasts in vitro, read-out: Trypsin (BAEE) IC-50): 7.4 µM | IC50 (Trypsin [9]; Table XI, human osteoporosis fibroblasts, 60 min incubation, read-out: Trypsin BAEE IC50): 7.4 µM | IC50 (Aryl sulphatase [10]; Table VIIIA, osteoporosis fibroblasts in vitro, read-out: Aryl Sulfatase IC-50): 9.01 µM | IC50 (Aryl sulphatase [10]; Table X, human osteoporosis fibroblasts, read-out: Aryl Sulphatase IC50): 9.01 µM | IC50 [11]: 2.55 µM | IC50 (Cathepsin D [12]): 2.82 µM | IC50 (Acid phosphatase [13]; Table VIIIA, osteoporosis fibroblasts in vitro, read-out: Acid Phosphatase IC-50): 16.6 µM | IC50 (Acid phosphatase [13]; Table X, human osteoporosis fibroblasts, read-out: Acid Phosphatase IC50): 16.6 µM | IC50 (Acid phosphatase [14]): 0.94 µM | IC50 (Elastase [15]): 1.8 µM | IC50 (Trypsin [16]): 1.26 µM | response vs control in vivo at 20 mg/kg (Cf1 male mice): 54% | IC50 (Cathepsin D [17]; Table VIIIA, osteoporosis fibroblasts in vitro, read-out: Cathepsin Azo-casein IC-50): 2.06 µM | IC50 (Cathepsin D [17]; Table X, human osteoporosis fibroblasts, DMEM +10% FCS + P/S, read-out: Cathepsin D IC50): 2.06 µM

From patent US5312816A, “Method of combatting osteoporosis in mammalian subjects, utilizing organic boron compounds” (priority 1993, dated 1994)
